Measurements reported in US20200277355A1 (GUILIN EIGHT PLUS ONE PHARMACEUTICAL CO., LTD., priority 2017, published 2020).
Like-named read-outs stand apart in the source and are kept apart here. No end group written: not given here.

Legend:
TNF-α [1] = target: T1, TNF-α (Homo sapiens, UniProt P01375); assay: MST binding of Hydrostatin-SN10 to TNF-α; conditions: fluorescently labeled TNF-α
[2] = Isoelectric point of Hydrostatin-SN10; format: physicochemical
[3] = Plasma half-life in SD rats (ELISA); format: in vivo
Experimental: The assay was performed according to the manufacturer's instructions using an ELISA kit purchased from Genzyme. Serum samples were collected from the […] with heparinized 50 μL capillaries, and blood samples were collected at 1 min, 2 min, 3 min, 5 min, 10 min, 15 min, 20 min, 30 min, 45 min, 1 h, 2 h, 4 h, 6 h, 8 h after treatment. After standing for 2 h, the sample was centrifuged, and the obtained supernatant was stored at −20° C. for testing.

[4] = tested on: DSS-induced acute colitis mouse; assay: Dextran sulfate sodium-induced acute colitis mouse model; format: in vivo, Balb/c mice; conditions: for body weight change: DSS 2.5% 7 days, 400 μg/kg/d intraperitoneal, FIG. 5; for myeloperoxidase (MPO) activity in colon tissue: FIG. 9; for serum IFN-γ content / serum IL-6 content / serum IL-10 (anti-inflammatory factor) / serum IL-β content / serum TNF-α content: FIG. 10; for colonic lesions, HE staining: FIG. 11; for TNF-α expressed in colon tissue sections: FIG. 12; for colon length: day 7, FIG. 7
Experimental: The specific implementation steps are as follows: Balb/c mice 6-8 weeks old were randomly divided into 8 groups, each group containing 10 mice.
According to Table 2, the disease activity index (DAI) score was obtained. […] Seven days after the model was established, the mouse were sacrificed by cervical dislocation, and the entire colon and spleen were removed. […] The spleen weight was measured and the spleen index was calculated.

TNF-α-TNFR1 binding = target: T2, TNF-α-TNFR1 binding (Homo sapiens, UniProt P19438); assay: BIAcore (SPR) competitive inhibition of TNF-α-TNFR1 binding
T2 sequence (P19438 30-211 limits assumed): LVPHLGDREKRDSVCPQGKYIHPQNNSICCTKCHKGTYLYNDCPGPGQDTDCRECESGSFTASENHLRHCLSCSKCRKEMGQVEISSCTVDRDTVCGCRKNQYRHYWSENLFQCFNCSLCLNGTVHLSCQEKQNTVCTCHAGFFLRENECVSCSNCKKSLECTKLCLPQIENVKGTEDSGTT

TNFR2 = target: T3, TNFR2 (Homo sapiens, UniProt P20333); assay: MST binding of Hydrostatin-SN10 to TNFR2
T3 sequence (P20333 23-461): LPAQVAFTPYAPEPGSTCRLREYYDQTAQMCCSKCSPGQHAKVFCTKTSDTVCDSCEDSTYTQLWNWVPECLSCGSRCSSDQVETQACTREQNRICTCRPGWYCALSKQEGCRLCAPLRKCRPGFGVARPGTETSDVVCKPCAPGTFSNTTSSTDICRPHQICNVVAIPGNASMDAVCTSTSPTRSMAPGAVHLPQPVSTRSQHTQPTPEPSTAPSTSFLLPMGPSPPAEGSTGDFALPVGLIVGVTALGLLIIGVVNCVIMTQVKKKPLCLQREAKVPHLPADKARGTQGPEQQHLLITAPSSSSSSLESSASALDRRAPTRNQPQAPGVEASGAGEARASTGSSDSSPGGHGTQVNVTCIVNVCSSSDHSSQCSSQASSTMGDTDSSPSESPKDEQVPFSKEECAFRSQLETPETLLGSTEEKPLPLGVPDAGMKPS

TNFR1 [5] = target: T4, TNFR1 (Homo sapiens, UniProt P19438); assay: biochemical
T4 sequence (P19438 30-455): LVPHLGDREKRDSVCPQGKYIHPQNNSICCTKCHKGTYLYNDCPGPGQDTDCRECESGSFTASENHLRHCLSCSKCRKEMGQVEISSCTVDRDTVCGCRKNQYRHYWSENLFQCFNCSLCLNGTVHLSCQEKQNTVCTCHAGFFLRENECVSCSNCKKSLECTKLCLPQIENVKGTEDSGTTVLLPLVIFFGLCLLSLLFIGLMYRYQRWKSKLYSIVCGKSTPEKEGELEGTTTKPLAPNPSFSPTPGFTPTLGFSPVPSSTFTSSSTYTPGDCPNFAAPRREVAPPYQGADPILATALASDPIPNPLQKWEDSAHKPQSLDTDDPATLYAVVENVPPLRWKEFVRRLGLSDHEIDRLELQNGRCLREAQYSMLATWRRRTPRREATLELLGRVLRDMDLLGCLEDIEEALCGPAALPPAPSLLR

TNFR1 [6] = target: T4, TNFR1; assay: biochemical; remark: listed apart in the source
TNF-α [7] = target: T1, TNF-α; assay: BIAcore (SPR) binding of Hydrostatin-SN10 to TNF-α
[8] = tested on: OXZ-induced acute colitis mouse; assay: Oxazolone-induced acute colitis mouse model; format: in vivo, Balb/c mice; conditions: for body weight change: 400 ug/kg/d i.p. 3 days, FIG. 13; for colon length: 3rd day after enema, FIG. 15; for MPO activity in colon tissue: FIG. 17; for serum IFN-γ level / serum IL-1β level / serum IL-6 level / serum IL-10 (anti-inflammatory factor) / serum TNF-α level: FIG. 18; for pathological changes in colon tissue, HE staining: FIG. 19; for expression of TNF-α in colon tissue sections: FIG. 20
Experimental: Establishment of an oxazolone-induced mouse colitis animal model: Male Balb/c mice, 6-8 weeks old, were randomly divided into 8 groups, each containing 10 mice. On the first day, the back skin of the mouse was shaved (1.5 cm×1.5 cm), and the normal group was coated with 0.15 mL of acetone/olive oil solution (acetone/olive oil volume ratio of 4:1). The model group and the SN10 group were negatively controlled. The drug and the positive control group were skin-coated with 0.15 mL of 3% (w/v) oxazolone (dissolved in acetone/olive oil solution) for skin pre-sensitization. On the 8th day, the mice were anesthetized by intraperitoneal injection of 4% chloral hydrate. The 3.51 catheter was slowly and gently inserted into the colon of the mouse about 4 cm from the anus. The normal group was injected with 0.1 mL of 50% ethanol, and the other groups were injected with […]. 1% (w/v) oxazolone (dissolved in 50% ethanol), slowly pull out the catheter, keep the mouse vertical, head down position for 60 s, so that the drug solution is fully left in the intestinal lumen. After enema, the normal group and the model group were given intraperitoneal injection of 0.1 mL of normal saline. […] The injection dose was 400 ug/kg/d, and the positive drug group was given 0.1 mL sulfasalazine and intravesical injection of infliximab (dissolved in normal saline) at doses of 400 mg/kg/d and 5 mg/respectively. Each kg/d was administered continuously for 3 days.
The body weight changes, stool characteristics and blood in the stool were observed and recorded daily after enema.
On the 3rd day after enema, the mice were sacrificed by cervical dislocation. The colon and spleen were removed immediately. The length of the colon was measured.
Part of the diseased colon tissue was excised and weighed. MPO) activity in mouse colon tissue was detected using a myeloperoxidase (MPO) assay kit (Nanjing Institute of Bioengineering). MPO is a functional marker and activation marker for neutrophils and is involved in many processes that regulate inflammatory responses. Excessive MPO activity catalyzes the reaction to produce excess oxidants, causing local oxidative stress and oxidative tissue damage.
The colon of the mouse were washed with saline, fixed in 10% formalin. Tissue sections were prepared and stained with HE.

TNFR1-TNF-α binding = target: T5, TNFR1-TNF-α binding (Homo sapiens, UniProt P19438); assay: MST competitive inhibition of TNFR1-TNF-α binding
T5 sequence (P19438 30-211 limits assumed): T2 sequence (P19438 30-211 limits assumed)
From the text: On-machine detection, software fitting to find the KD value. The changes of TNF-α saturation concentration, response amplitude and KD value before and after Hydrostatin-SN10 were compared.

Substance | body weight change [4] | overall treatment effect in DSS-induced colitis ([4]; DSS, 400 μg/kg/d i.p.) | myeloperoxidase (MPO) activity in colon tissue ([4]; DSS, 400 μg/kg/d i.p.) | serum IFN-γ content ([4]; DSS, 400 μg/kg/d i.p.) | serum IL-6 content ([4]; DSS, 400 μg/kg/d i.p.) | serum IL-10 (anti-inflammatory factor) ([4]; DSS, 400 μg/kg/d i.p.) | serum IL-β content ([4]; DSS, 400 μg/kg/d i.p.) | serum TNF-α content ([4]; DSS, 400 μg/kg/d i.p.) | colonic lesions, HE staining ([4]; DSS, 400 μg/kg/d i.p.) | TNF-α expressed in colon tissue sections ([4]; DSS, 400 μg/kg/d i.p.) | colon length ([4]; DSS, 400 μg/kg/d i.p.) | overall treatment effect in oxazolone-induced colitis ([8]; 400 ug/kg/d i.p.) | body weight change [8] | colon length ([8]; 400 ug/kg/d i.p.) | MPO activity in colon tissue ([8]; 400 ug/kg/d i.p.) | serum IFN-γ level ([8]; 400 ug/kg/d i.p.) | serum IL-1β level ([8]; 400 ug/kg/d i.p.) | serum IL-6 level ([8]; 400 ug/kg/d i.p.) | serum IL-10 (anti-inflammatory factor) ([8]; 400 ug/kg/d i.p.) | serum TNF-α level ([8]; 400 ug/kg/d i.p.) | also measured
H-DEQHLETELH [Hydrostatin-SN10] | effective in inhibiting the weight loss | effective in treating DSS-induced colitis animal models | significantly reduce MPO activity | significantly decreased | significantly decreased | significantly increased | significantly decreased | significantly decreased | effectively inhibit colonic lesions caused by DSS | alleviate the degree of inflammation in the colon tissue | significantly improved the colon length | effective in the treatment of oxazolone-induced mouse colitis animal model | significantly reduced the weight loss | significantly improved colon length | effective in inhibiting the increase in MPO activity | significantly reduced | significantly reduced | significantly reduced | significantly increased | significantly reduced | binding to TNF-α (TNF-α [1]): not binding; binding to TNF-α (TNF-α [1]; listed as SN10): no binding; isoelectric point [2]: 4.39; half-life ([3]; rat, plasma, ELISA): 2.18 h; disease activity index (DAI) score ([4]; DSS, 400 μg/kg/d i.p., FIG. 6): effectively alleviate the symptoms of diarrhea and blood in the stool; spleen index ([4]; DSS, 400 μg/kg/d i.p., FIG. 8): effectively inhibit spleen changes caused by colitis; competitive inhibition of the interaction of TNFR1 with TNF-α (TNF-α-TNFR1 binding): competitively inhibits; binding to TNFR2 (TNFR2; fluorescently labeled TNFR2): not binding; binding to TNFR2 (TNFR2; fluorescently labeled TNFR2, listed as SN10): no binding; Kd (TNFR1 [5]): 2800 nM; Kd (TNFR1 [6]): ~2800 nM; binding to TNF-α (TNF-α [7]): does not bind; binding to TNF-α (TNF-α [7]; listed as SN10): no binding; disease activity index (DAI) score ([8]; 400 ug/kg/d i.p., FIG. 14): effectively alleviate the symptoms of diarrhea and blood in the stool; spleen index ([8]; 400 ug/kg/d i.p., FIG. 16): significantly down-regulate the mouse spleen index; pathological changes in colon tissue, HE staining ([8]; 400 ug/kg/d i.p.): significantly attenuated pathological changes in mouse colon tissue; expression of TNF-α in colon tissue sections ([8]; 400 ug/kg/d i.p.): significantly reduced; competitive inhibition of the interaction of TNFR1 and TNF-α (TNFR1-TNF-α binding): competitively inhibit
PEG-SN10: Hydrostatin-SN10 modified with mPEG2000; carboxyl group of mPEG2000 covalently linked to free amino group of N-terminal aspartic acid (mPEG2000-DEQHLETELH) | effective in inhibiting the weight loss | effective in treating DSS-induced colitis animal models | significantly reduce MPO activity | significantly decreased | significantly decreased | significantly increased | significantly decreased | significantly decreased | effectively inhibit colonic lesions caused by DSS | alleviate the degree of inflammation in the colon tissue | significantly improved the colon length | effective in the treatment of oxazolone-induced mouse colitis animal model | significantly reduced the weight loss | significantly improved colon length | effective in inhibiting the increase in MPO activity | significantly reduced | significantly reduced | significantly reduced | significantly increased | significantly reduced | plasma half-life compared with Hydrostatin-SN10 ([3]; after PEG modification): longer plasma half-life; pathological changes in colon tissue, HE staining ([8]; 400 ug/kg/d i.p.): significantly attenuated pathological changes in mouse colon tissue; expression of TNF-α in colon tissue sections ([8]; 400 ug/kg/d i.p.): significantly reduced
